Read-outs that look alike come from different tables or passages of the source. Values belong to the compound of their own block, whether it stands above or below them.
What was measured:
[1] = water at 20° C.; cited from earlier work
[2] = Dicarboxylic acid remaining in solution while the HCl-acidified magnesium dicarboxylate solution is cooled (precipitation); assay type: physicochemical
Description: Magnesium hydroxide was added to a solution of dicarboxylic acid in water and heated up to complete dissolution. Four different carboxylic acids were used: adipic acid, fumaric acid, itaconic acid and 2,5-furandicarboxylic acid. The resulting dicarboxylate solution was meant to resemble a magnesium dicarboxylate solution obtained in a fermentation process. Although a magnesium dicarboxylate solution obtained in a fermentation process generally comprises compounds other than magnesium dicarbooxylate, such as a relatively large amount of impurities, the magnesium dicarboxylate solution prepared for this example was considered to sufficiently resemble a magnesium dicarboxylate solution obtained in a fermentation process to show the proof of principle that the invention works.
A certain amount of an aqueous solution of HCl was added to the magnesium dicarboxylate solution from Example 1, as indicated in Table 2. […] During cooling, samples were taken of the solution for each 10±1 centigrade.
The amount of crystal produced was calculated as difference between the initial dicarboxylic mass and the remaining dicarboxylic mass in solution.

[3] = Description: The solution was then cooled from 115° C. to 20° C. […] The precipitate was separated from the solution by filtration using a standard gravity filter.
[4] = remark: listed apart in the source
Description: An amount of 333 g aqueous solution of HCl (37 wt. % wt %) was added to the thus prepared magnesium succinate solution. […] During cooling, samples were taken of the solution and the precipitate of the mixture at 62, 52, 40, 31 and 20° C. The composition of the samples and the total amount of precipitate formed were determined.
The samples were taken only from the solution (for sampling, stirrer was stopped some few seconds, and after crystal settling, a sample was taken from the supernatant).

[5] = 20 ° C., MgCl2 solution, over precipitate
[6] = 30 ° C., MgCl2 solution, over precipitate
[7] = 50 ° C., MgCl2 solution, over precipitate
[8] = 60 ° C., MgCl2 solution after HCl acidulation, no precipitate yet
[9] = 40 ° C., MgCl2 solution, over precipitate

SMILES: [Cl-].[Cl-].[Mg+2] [MgCl2, magnesium chloride]
- saturation point in water [1]: 55 g/100 g water

SMILES: C=C(CC(=O)O)C(=O)O [Itaconic Acid, itaconic acid]
- Itaconic Acid concentration in the solution [2, 5]: 2.6 wt %
- Itaconic Acid concentration in the solution [2, 6]: 4.1 wt %
- Itaconic Acid concentration in the solution ([2]; 41 ° C., MgCl2 solution, over precipitate): 6.0 wt %
- Itaconic Acid concentration in the solution [2, 7]: 9.4 wt %
- Itaconic Acid concentration in the solution [2, 8]: 13.2 wt %

- Adipic Acid concentration in the solution [2, 5]: 0.7 wt %
- Adipic Acid concentration in the solution [2, 6]: 1.2 wt %
- Adipic Acid concentration in the solution [2, 9]: 2 wt %
- Adipic Acid concentration in the solution ([2]; 51 ° C., MgCl2 solution, over precipitate): 3.5 wt %
- Adipic Acid concentration in the solution ([2]; 60 ° C., MgCl2 solution, over precipitate): 6.1 wt %
- Adipic Acid concentration in the solution ([2]; 70 ° C., MgCl2 solution, over precipitate): 11.5 wt %
- Adipic Acid concentration in the solution ([2]; 81 ° C., MgCl2 solution after HCl acidulation, no precipitate yet): 14.2 wt %
SMILES: O=C(O)CCCCC(=O)O [Adipic Acid, adipic acid]

- succinic acid present in the filtrate ([3]; HPLC, filtrate after cooling from 115° C. to 20° C., 31.7 wt. % magnesium chloride): 0.22 wt. %
- Content succínic, Solution ([3]; solution after cooling to 20° C. and filtration, concentrated to 31.7 wt. % magnesium chloride): 0.22%
- Succinic Acid concentration in the solution [4, 5]: 2.10 wt. %
- Succinic Acid concentration in the solution ([4]; 31 ° C., MgCl2 solution, over precipitate): 3.40 wt. %
- Succinic Acid concentration in the solution [4, 9]: 5.00 wt. %
- Succinic Acid concentration in the solution ([4]; 52 ° C., MgCl2 solution, over precipitate): 8.20 wt. %
- Succinic Acid concentration in the solution ([4]; 62 ° C., MgCl2 solution after HCl acidulation, no precipitate yet): 13.13 wt. %
SMILES: O=C(O)CCC(=O)O [Succinic Acid, succinic acid]

- 2,5-Furandicarboxylic Acid concentration in the solution ([2]; 22 ° C., MgCl2 solution, over precipitate): 0.06%
- 2,5-Furandicarboxylic Acid concentration in the solution ([2]; 32 ° C., MgCl2 solution, over precipitate): 0.14%
- 2,5-Furandicarboxylic Acid concentration in the solution ([2]; 42 ° C., MgCl2 solution, over precipitate): 0.33%
- 2,5-Furandicarboxylic Acid concentration in the solution ([2]; 53 ° C., MgCl2 solution, over precipitate): 0.25%
- 2,5-Furandicarboxylic Acid concentration in the solution ([2]; 62 ° C., MgCl2 solution, over precipitate): 0.38%
- 2,5-Furandicarboxylic Acid concentration in the solution ([2]; 72 ° C., MgCl2 solution, over precipitate): 0.19%
- 2,5-Furandicarboxylic Acid concentration in the solution ([2]; 84 ° C., MgCl2 solution, over precipitate): 0.52%
SMILES: O=C(O)c1ccc(C(=O)O)o1 [2,5-Furandicarboxylic Acid, 2,5-furandicarboxylic acid]

- Fumaric Acid concentration in the solution [2, 5]: 0.5 wt %
- Fumaric Acid concentration in the solution [2, 6]: 0.5 wt %
- Fumaric Acid concentration in the solution ([2]; 39 ° C., MgCl2 solution, over precipitate): 0.7 wt %
- Fumaric Acid concentration in the solution [2, 7]: 1.1 wt %
- Fumaric Acid concentration in the solution [2, 8]: 1.6 wt %
SMILES: O=C(O)/C=C/C(=O)O [Fumaric Acid, fumaric acid]

From US10508069B2, “Acid/salt separation” (PURAC BIOCHEM B.V., priority 2011, dated 2019)
